# Where two headings read alike, the source gives them in different places.
# Key:
# [1] = tested on: IL-15 induced STAT5 phosphorylation in Human Whole Blood (total lymphocytes); assay: HWB IL-15 Induced STAT5 Phosphorylation Assay; assay type: cell-based; conditions: Lymphocyte, IL-15 stimulated, read-out: HWB-IL15-pSTAT5 IC50
# Method: HWB IL-15 Induced STAT5 Phosphorylation Assay
# After mixing and incubating for 45 minutes at 37° C., 5 μl D-PBS (unstimulated control) or 20× stocks of 5 μl human IL-15 (final concentration is 50 ng/ml) were added, and mixed three times. After incubating 15 minutes at 37° C., 1× Lyse/Fix Buffer (BD Phosflow 5× Lyse/Fix Buffer) was added to all wells at 1000 μl/well, then incubated for 20 minutes at 37° C. and spun 5 mins at 1200 rpm. […] Following incubating at 4° C. over night, all the samples were transferred to 96-well polypropylene U-bottom plate, and checked by flow cytometry gated on total lymphocytes.
# [2] = tested on: IL-15 induced P-STAT5 in human PBMC (total lymphocytes); assay: PBMC IL-15 Induced P-STAT5; assay type: cell-based; conditions: IL-15 stimulated, read-out: PBMC IL15-pSTAT5 IC50
# Method: PBMC IL-15 Induced P-STAT5
# Frozen human PBMC (200-250 million cells/vial) was thawed at 37° C. The cells were transferred to 10 mL warm medium in a 50-mL conical tube, and centrifuged at 1,200 RPM at room temperature for 5 min. The supernatant was aspirated. […] After adding 47 ml D-PBS (37° C.) to PBMC/FBS suspension, centrifuging at 1,200 RPM at room temperature for 5 min, and aspirating the supernatant, the cells were resuspended in 20 mL warm RPMI medium. Ninety μL of cell suspension were pipetted per well in a 96-well, deep-well, V-bottom plate, and the plate was incubated at 37° C. for 30 min. […] After adding 0.8 mL staining buffer per well, the plates were centrifuged at 1,200 RPM (Beckman GS-6R or Sorvall Legend) at room temperature for 5 min, and again the supernatant was aspirated using a 8-channel or 12-channel manifold. The plate was vortexed, and 0.35 mL 90% methanol/10% H2O (−20° C.) was added per well, and the plate incubated on ice for 20 min. After again adding 0.8 mL staining buffer per well, the plates were centrifuged at 1,200 RPM (Beckman GS-6R or Sorvall Legend) at room temperature for 5 min, and again the supernatant was aspirated using a 8-channel or 12-channel manifold, and then 0.8 mL Staining buffer was added per well. After once again adding 0.8 mL staining buffer per well, the plates were centrifuged at 1,200 RPM (Beckman GS-6R or Sorvall Legend) at room temperature for 5 min, and again the supernatant was aspirated using a 8-channel or 12-channel manifold. […] Samples of 250 μL/well were transferred to a 96-well U-bottom plate, and the FACS analysis was performed gating on total lymphocytes. Samples were analyzed using a BD Calibur™ or BD FACSCanto™ flow cytometer equipped with the BD High Throughput Sampler.
IC50 [1] [nM],Compound,IC50 [2] [nM],"IC50 ([2]; Homo sapiens, PBMC) [nM]"
712,"C=CC(=O)N1C[C@@H](C)C[C@@H](Nc2ncnc3[nH]ccc23)C1 (racemic) [Example 22, rac-cis-1-((3R,5S)-3-((7H-Pyrrolo[2,3-d]pyrimidin-4-yl)amino)-5-methylpiperidin-1-yl)prop-2-en-1-one]",216,
926,"C=CC(=O)N1CC[C@H](C)[C@@H](Nc2ncnc3[nH]ccc23)C1 (racemic) [Example 50, 1-[(3R,4S)-4-methyl-3-(7H-pyrrolo[2,3-d]pyrimidin-4-ylamino)piperidin-1-yl]prop-2-en-1-one]",,202
797,"C=CC(=O)N1C[C@H](Nc2ncnc3[nH]ccc23)CC[C@@H]1C (racemic) [Example 129, rac-1-[(2S,5R)-2-Methyl-5-(7H-pyrrolo[2,3-d]pyrimidin-4-ylamino)piperidin-1-yl]prop-2-en-1-one]",114,
399,"C=CC(=O)N1CC[C@@H]2CCN(c3ncnc4[nH]ccc34)[C@@H]2C1 (single isomer, unassigned) [Example 8]",,
578,"C=CC(=O)N1C[C@H](Nc2ncnc3[nH]ccc23)CC[C@@H]1CC (single isomer, unassigned) [Example 9]",,35.5
538,"C=CC(=O)N1C[C@@H](C)C[C@@H](Nc2ncnc3[nH]ccc23)C1 (single isomer, unassigned) [Example 14]",114,
1870,"C=CC(=O)N1C[C@H](Nc2ncnc3[nH]ccc23)CCC1(C)C (single isomer, unassigned) [Example 61]",,1030
153,"C=CC(=O)N1CCC[C@@H](Nc2ncnc3[nH]cc(Cl)c23)C1 [Example 3, (R)-1-(3-((5-chloro-7H-pyrrolo[2,3-d]pyrimidin-4-yl)amino)piperidin-1-yl)prop-2-en-1-one]",,35.2
115,"C=CC(=O)N1CC[C@H](F)[C@@H](Nc2ncnc3[nH]ccc23)C1 [Example 4, 1-((3S,4S)-3-((7H-pyrrolo[2,3-d]pyrimidin-4-yl)amino)-4-fluoropiperidin-1-yl)prop-2-en-1-one]",,19.7
870,"C=CC(=O)N1C[C@H](C#N)C[C@@H](Nc2ncnc3[nH]ccc23)C1 [Example 6, (3R,5R)-5-((7H-pyrrolo[2,3-d]pyrimidin-4-yl)amino)-1-acryloylpiperidine-3-carbonitrile]",45.8,
461,"C=CC(=O)N1C[C@H](F)C[C@@H](Nc2ncnc3[nH]ccc23)C1 [Example 10, 1-((3R,5R)-3-((7H-pyrrolo[2,3-d]pyrimidin-4-yl)amino)-5-fluoropiperidin-1-yl)prop-2-en-1-one]",,133
363,"C=CC(=O)N1CC[C@H](C)[C@@H](Nc2ncnc3[nH]ccc23)C1 [Example 11, 1-((3R,4S)-3-((7H-pyrrolo[2,3-d]pyrimidin-4-yl)amino)-4-methylpiperidin-1-yl)prop-2-en-1-one]",,97.9
392,"C=CC(=O)N1CCC[C@@H](Nc2ncnc3[nH]ccc23)C1 [Example 12, (R)-1-(3-((7H-Pyrrolo[2,3-d]pyrimidin-4-yl)amino)piperidin-1-yl)prop-2-en-1-one]",,107
549,"C=CC(=O)N1C[C@H](Nc2ncnc3[nH]cc(CCOC)c23)CC[C@@H]1C [Example 13, 1-((2S,5R)-5-((5-(2-Methoxyethyl)-7H-pyrrolo[2,3-d]pyrimidin-4-yl)amino)-2-methylpiperidin-1-yl)prop-2-en-1-one]",114,
400,"C=CC(=O)N1C[C@@H](F)C[C@@H](Nc2ncnc3[nH]ccc23)C1 [Example 15, 1-((3R,5S)-3-((7H-Pyrrolo[2,3-d]pyrimidin-4-yl)amino)-5-fluoropiperidin-1-yl)prop-2-en-1-one]",,128
210,"C=CC(=O)N1C[C@@H](O)C[C@@H](Nc2ncnc3[nH]ccc23)C1 [Example 17, 1-((3R,5S)-3-(7H-Pyrrolo[2,3-d]pyrimidin-4-ylamino)-5-hydroxypiperidin-1-yl)prop-2-en-1-one]",,71.8

IC50 [1] [nM],Compound,IC50 [2] [nM],"IC50 ([2]; Homo sapiens, PBMC) [nM]"
555,"C=CC(=O)N1C[C@H](Nc2ncnc3[nH]cc(Cl)c23)CC[C@@H]1C [Example 18, 1-((2S,5R)-5-((5-Chloro-7H-pyrrolo[2,3-d]pyrimidin-4-yl)amino)-2-methylpiperidin-1-yl)prop-2-en-1-one]",31.5,
505,"C=CC(=O)N1C[C@H](Nc2ncnc3[nH]ccc23)C[C@H](OC)C1 [Example 19, 1-((3R,5S)-3-((7H-Pyrrolo[2,3-d]pyrimidin-4-yl)amino)-5-methoxypiperidin-1-yl)prop-2-en-1-one]",139,
819,"C=CC(=O)N1CCC[C@@H](Nc2ncnc3[nH]cc(F)c23)C1 [Example 42, 1-{(3R)-3-[(5-fluoro-7H-pyrrolo[2,3-d]pyrimidin-4-yl)amino]piperidin-1-yl}prop-2-en-1-one]",,293
463,"C=CC(=O)N1CCC[C@@H](Nc2ncnc3[nH]cc(C)c23)C1 [Example 43, 1-{(3R)-3-[(5-methyl-7H-pyrrolo[2,3-d]pyrimidin-4-yl)amino]piperidin-1-yl}prop-2-en-1-one]",116,
1180,"C=CC(=O)N1CCC[C@@H](Nc2ncnc3[nH]cc(CC)c23)C1 [Example 44, 1-{(3R)-3-[(5-ethyl-7H-pyrrolo[2,3-d]pyrimidin-4-yl)amino]piperidin-1-yl}prop-2-en-1-one]",320,
1010,"C=CC(=O)N1CCC[C@@H](Nc2ncnc3[nH]cc(C#N)c23)C1 [Example 45, 4-{[(3R)-1-acryloylpiperidin-3-yl]amino}-7H-pyrrolo[2,3-d]pyrimidine-5-carbonitrile]",348,
359,"C=CC(=O)N1CCC[C@@H](Nc2ncnc3[nH]cc(CCOC)c23)C1 [Example 46, 1-[(3R)-3-{[5-(2-methoxyethyl)-7H-pyrrolo[2,3-d]pyrimidin-4-yl]amino}piperidin-1-yl]prop-2-en-1-one]",,279
235,"C=CC(=O)N1CC(Nc2ncnc3[nH]ccc23)CCC1CO (stereo not shown) [Example 52, 1-[2-(Hydroxymethyl)-5-(7H-pyrrolo[2,3-d]pyrimidin-4-ylamino)piperidin-1-yl]prop-2-en-1-one]",,
366,"C=CC(=O)N1CC[C@@H](F)[C@@H](Nc2ncnc3[nH]ccc23)C1 [Example 54, 1-((3S,4R)-3-((7H-Pyrrolo[2,3-d]pyrimidin-4-yl)amino)-4-fluoropiperidin-1-yl)prop-2-en-1-one]",,222
2610,"C=CC(=O)N1C[C@H](Nc2ncnc3[nH]ccc23)C[C@H](N(C)C)C1 [Example 57, 1-((3R,5S)-3-((7H-Pyrrolo[2,3-d]pyrimidin-4-yl)amino)-5-(dimethylamino)piperidin-1-yl)prop-2-en-1-one]",1230,
,"C=CC(=O)N1CCN(c2cnc3[nH]cc(C(=O)NC(C)C)c3n2)C2(CC2)C1 [Example 313, 2-(7-acryloyl-4,7-diazaspiro[2.5]oct-4-yl)-N-(propan-2-yl)-5H-pyrrolo[2,3-b]pyrazine-7-carboxamide]",706,
,"C=CC(=O)N1CCN(c2cnc3[nH]cc(C(=O)NC(C)C)c3n2)[C@H](CC)C1 [Example 321, 2-[(2R)-4-acryloyl-2-ethylpiperazin-1-yl]-N-(propan-2-yl)-5H-pyrrolo[2,3-b]pyrazine-7-carboxamide]",415,
,"C=CC(=O)N1CCN(c2cnc3[nH]cc(C(=O)NC(C)C)c3n2)[C@@H](CC)C1 [Example 325, 2-[(2S)-4-acryloyl-2-ethylpiperazin-1-yl]-N-(propan-2-yl)-5H-pyrrolo[2,3-b]pyrazine-7-carboxamide]",1560,
,"C=CC(=O)N1C[C@@H](C)N(c2cnc3[nH]cc(C(=O)NC(C)C)c3n2)[C@@H](C)C1 [Example 328, 2-[(2R,6S)-4-acryloyl-2,6-dimethylpiperazin-1-yl]-N-(propan-2-yl)-5H-pyrrolo[2,3-b]pyrazine-7-carboxamide]",891,
,"C=CC(=O)N1CCC(Oc2cnc3[nH]cc(C(=O)NC(C)(C)C)c3n2)CC1 [Example 338, 2-((1-Acryloylpiperidin-4-yl)oxy)-N-(tert-butyl)-5H-pyrrolo[2,3-b]pyrazine-7-carboxamide]",480,

# Reference: patent US11111242B2, “Pyrrolo[2,3-d]pyrimidinyl, pyrrolo[2,3-b]pyrazinyl and pyrrolo[2,3-d]pyridinyl acrylamides” (Pfizer Inc., priority 2013, dated 2021)
